Data from patent US8822517B2, “Arylosulfonamides for the treatment of CNS diseases” (Adamed SP. Z O.O., priority 2010, dated 2014).

Assays:
adrenergic α2C receptor = target: T1, adrenergic α2C receptor (Homo sapiens, UniProt P18825); test: Binding assay α2C (h), [3H]RX 821002, CHO cells; parameters: expressed in transfected cells; host or cells: CHO cells; details: read-out: α2C [%]
T1 sequence (P18825 1-462): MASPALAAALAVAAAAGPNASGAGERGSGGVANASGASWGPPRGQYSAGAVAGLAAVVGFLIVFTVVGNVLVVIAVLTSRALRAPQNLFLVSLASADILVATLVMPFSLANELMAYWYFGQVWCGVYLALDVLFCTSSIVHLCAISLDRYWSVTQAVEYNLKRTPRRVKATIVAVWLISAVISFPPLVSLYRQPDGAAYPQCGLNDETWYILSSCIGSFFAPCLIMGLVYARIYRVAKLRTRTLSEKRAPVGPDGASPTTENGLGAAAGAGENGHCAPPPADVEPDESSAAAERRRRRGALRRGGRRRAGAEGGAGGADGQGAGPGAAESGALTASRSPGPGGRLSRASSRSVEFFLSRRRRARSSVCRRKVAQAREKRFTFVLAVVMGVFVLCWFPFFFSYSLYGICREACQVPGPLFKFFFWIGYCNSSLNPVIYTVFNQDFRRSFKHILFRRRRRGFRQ
Summary of the method: (§1)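 Compounds tested at a single 1×10^−6 M concentration against the listed radioligands; bound label counted by scintillation, with non-specific binding defined by excess unlabelled ligand and subtracted from total.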

adrenergic α1 receptor = test: Binding assay α1 (non-selective), [3H]prazosin, rat cerebral cortex; details: percent inhibition of control specific binding; compounds tested at 1×10^−6 M
Summary of the method: as §1

dopaminergic D2 receptor = dopaminergic D2 receptor (Homo sapiens, UniProt P14416); test: Binding assay D2S (h), [3H]methyl-spiperone, HEK-293 cells; parameters: expressed in transfected cells; host or cells: HEK-293 cells; details: read-out: D2 [%]
Summary of the method: as §1

[1] = target: T2, serotonine transporter (SERT) receptor (Homo sapiens, UniProt P31645); test: Binding assay SERT (h), [3H]imipramine, CHO cells; details: read-out: SERT [%]
T2 construct: expressed in transfected cells; host or cells: CHO cells
Summary of the method: as §1

[2] = target: serotoninergic 5-HT2A receptor (Homo sapiens, UniProt P28223); test: Binding assay 5-HT2A (h), [3H]ketanserin, HEK-293 cells; parameters: expressed in transfected cells; host or cells: HEK-293 cells; details: read-out: 5-HT2A
Summary of the method: as §1

[3] = target: T3, serotoninergic 5-HT6 receptor (Homo sapiens, UniProt P50406); test: Cellular functional assay, serotoninergic 5-HT6 receptor (agonism/antagonism); type: cell-based; details: for activation at 1 µM: agonist effect, percent of control specific agonist response, compounds tested at 1×10^−6M, read-out: 5-HT6-ag [%]; for inhibition at 1 µM: read-out: 5-HT6-antag. [%]
Procedure: (§2) The compounds were tested at the concentration of 1×10^−6M.
(§3) In the Tables ag refers to agonism, and antag to antagonism).

[4] = target: T3, serotoninergic 5-HT6 receptor; test: Binding assay 5-HT6 (h), [3H]LSD, CHO cells; parameters: expressed in transfected cells; host or cells: CHO cells; details: read-out: 5-HT6
Summary of the method: as §1

[5] = target: T4, serotoninergic 5-HT7 receptor (Homo sapiens, UniProt P34969); test: Cellular functional assay, serotoninergic 5-HT7 receptor (agonism/antagonism); type: cell-based; details: for activation at 1 µM: agonist effect, percent of control specific agonist response, compounds tested at 1×10^−6M, read-out: 5-HT7-ag [%]; for inhibition at 1 µM: read-out: 5-HT7-antag. [%]
Procedure: as §2, §3

dopaminergic D3 receptor = dopaminergic D3 receptor (Homo sapiens, UniProt P35462); test: Binding assay D3 (h), [3H]methyl-spiperone, CHO cells; parameters: expressed in transfected cells; host or cells: CHO cells; details: read-out: D3 [%]
Summary of the method: as §1

[6] = target: T4, serotoninergic 5-HT7 receptor; test: Binding assay 5-HT7 (h), [3H]LSD, CHO cells; parameters: expressed in transfected cells; host or cells: CHO cells; details: read-out: 5-HT7
Summary of the method: as §1

[7] = target: histaminergic H1 receptor (Homo sapiens, UniProt P35367); test: Binding assay H1 (h), [3H]pyrilamine, HEK-293 cells; parameters: expressed in transfected cells; host or cells: HEK-293 cells; details: read-out: H1 [%]
Summary of the method: as §1

sigma σ receptor = test: Binding assay σ (non-selective), [3H]DTG, rat cerebral cortex; details: percent inhibition of control specific binding; compounds tested at 1×10^−6 M
Summary of the method: as §1

[8] = target: T5, serotoninergic 5-HT1A receptor (Homo sapiens, UniProt P08908); test: Binding assay 5-HT1A (h), [3H]8-OH-DPAT, HEK-293 cells; parameters: expressed in transfected cells; host or cells: HEK-293 cells; details: read-out: 5-HT1A
T5 sequence (P08908 1-422): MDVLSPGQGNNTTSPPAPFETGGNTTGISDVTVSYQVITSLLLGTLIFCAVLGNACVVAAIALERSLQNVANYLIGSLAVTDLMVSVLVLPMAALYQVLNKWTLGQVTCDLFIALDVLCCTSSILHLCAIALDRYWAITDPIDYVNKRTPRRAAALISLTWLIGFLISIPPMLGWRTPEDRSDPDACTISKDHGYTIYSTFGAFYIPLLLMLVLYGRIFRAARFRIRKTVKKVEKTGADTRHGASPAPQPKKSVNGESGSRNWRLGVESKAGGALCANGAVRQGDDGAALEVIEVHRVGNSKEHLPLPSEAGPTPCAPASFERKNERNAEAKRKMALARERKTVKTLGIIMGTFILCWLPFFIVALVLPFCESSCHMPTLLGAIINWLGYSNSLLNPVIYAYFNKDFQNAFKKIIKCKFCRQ
Summary of the method: as §1

muscarinic M3 receptor = target: T6, muscarinic M3 receptor (Homo sapiens, UniProt P20309); test: Binding assay M3 (h), [3H]4-DAMP, CHO cells; details: read-out: M3 [%]
T6 construct: expressed in transfected cells; host or cells: CHO cells
Summary of the method: as §1

[9] = target: T7, serotoninergic receptor 5-HT2C (Homo sapiens, UniProt P28335); test: Binding assay 5-HT2C (h), [3H]mesulergine, HEK-293 cells; details: read-out: 5-HT2C [%]
T7 construct: expressed in transfected cells; host or cells: HEK-293 cells
T7 sequence (P28335 33-458): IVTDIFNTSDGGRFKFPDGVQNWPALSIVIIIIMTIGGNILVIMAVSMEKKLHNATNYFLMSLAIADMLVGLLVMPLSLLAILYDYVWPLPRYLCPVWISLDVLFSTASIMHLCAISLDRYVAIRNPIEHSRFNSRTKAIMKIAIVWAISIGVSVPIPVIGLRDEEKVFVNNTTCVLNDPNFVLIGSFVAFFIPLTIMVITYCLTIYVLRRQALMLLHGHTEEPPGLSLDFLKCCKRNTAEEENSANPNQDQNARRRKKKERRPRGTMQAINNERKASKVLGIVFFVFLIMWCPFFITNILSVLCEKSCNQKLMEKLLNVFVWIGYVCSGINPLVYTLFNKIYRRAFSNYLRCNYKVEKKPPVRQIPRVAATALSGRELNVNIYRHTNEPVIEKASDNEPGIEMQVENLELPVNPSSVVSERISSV
Summary of the method: as §1

T2 sequence (P31645 whole entry): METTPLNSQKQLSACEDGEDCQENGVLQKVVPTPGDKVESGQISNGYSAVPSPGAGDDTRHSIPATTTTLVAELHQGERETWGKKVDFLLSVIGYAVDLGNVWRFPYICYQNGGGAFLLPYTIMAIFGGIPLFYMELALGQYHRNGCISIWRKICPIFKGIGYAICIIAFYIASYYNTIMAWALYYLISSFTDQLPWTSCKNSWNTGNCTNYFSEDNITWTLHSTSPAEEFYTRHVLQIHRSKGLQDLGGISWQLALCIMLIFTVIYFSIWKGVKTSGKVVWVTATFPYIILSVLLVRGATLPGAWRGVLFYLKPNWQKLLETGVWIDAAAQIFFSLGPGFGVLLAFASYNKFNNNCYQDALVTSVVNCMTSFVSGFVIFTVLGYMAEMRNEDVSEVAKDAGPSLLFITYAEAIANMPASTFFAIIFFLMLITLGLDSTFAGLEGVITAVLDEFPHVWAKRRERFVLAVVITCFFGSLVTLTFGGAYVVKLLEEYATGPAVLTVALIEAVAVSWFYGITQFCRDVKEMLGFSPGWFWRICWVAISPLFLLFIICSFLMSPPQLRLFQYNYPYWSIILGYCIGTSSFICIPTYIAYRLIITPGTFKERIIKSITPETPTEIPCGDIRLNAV
Sequence of serotoninergic 5-HT2A receptor (P28223 whole entry): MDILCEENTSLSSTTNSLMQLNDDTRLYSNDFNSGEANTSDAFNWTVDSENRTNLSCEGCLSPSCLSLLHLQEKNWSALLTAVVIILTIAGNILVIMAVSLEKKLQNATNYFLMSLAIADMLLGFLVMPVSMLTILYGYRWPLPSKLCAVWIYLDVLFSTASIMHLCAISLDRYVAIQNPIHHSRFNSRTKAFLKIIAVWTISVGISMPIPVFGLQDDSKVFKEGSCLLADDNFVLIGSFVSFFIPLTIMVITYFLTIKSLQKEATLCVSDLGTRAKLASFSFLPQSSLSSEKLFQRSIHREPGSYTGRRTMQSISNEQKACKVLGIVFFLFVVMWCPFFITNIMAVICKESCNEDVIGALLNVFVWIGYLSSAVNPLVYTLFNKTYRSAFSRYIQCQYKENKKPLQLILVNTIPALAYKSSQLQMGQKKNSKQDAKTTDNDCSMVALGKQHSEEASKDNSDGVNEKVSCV
Sequence of dopaminergic D2 receptor (P14416 1-414 isoform P14416-2): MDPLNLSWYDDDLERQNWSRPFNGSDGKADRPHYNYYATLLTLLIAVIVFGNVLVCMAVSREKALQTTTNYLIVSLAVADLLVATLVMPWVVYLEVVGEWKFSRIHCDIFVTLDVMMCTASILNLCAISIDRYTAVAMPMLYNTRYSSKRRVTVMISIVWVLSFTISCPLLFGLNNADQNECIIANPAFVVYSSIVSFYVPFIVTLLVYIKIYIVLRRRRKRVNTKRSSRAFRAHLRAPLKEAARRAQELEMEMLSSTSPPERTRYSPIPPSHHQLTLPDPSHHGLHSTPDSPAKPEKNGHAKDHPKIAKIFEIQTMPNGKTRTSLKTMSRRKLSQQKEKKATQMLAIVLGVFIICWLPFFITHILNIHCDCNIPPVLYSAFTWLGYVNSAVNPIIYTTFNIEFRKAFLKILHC
T4 sequence (P34969 whole entry): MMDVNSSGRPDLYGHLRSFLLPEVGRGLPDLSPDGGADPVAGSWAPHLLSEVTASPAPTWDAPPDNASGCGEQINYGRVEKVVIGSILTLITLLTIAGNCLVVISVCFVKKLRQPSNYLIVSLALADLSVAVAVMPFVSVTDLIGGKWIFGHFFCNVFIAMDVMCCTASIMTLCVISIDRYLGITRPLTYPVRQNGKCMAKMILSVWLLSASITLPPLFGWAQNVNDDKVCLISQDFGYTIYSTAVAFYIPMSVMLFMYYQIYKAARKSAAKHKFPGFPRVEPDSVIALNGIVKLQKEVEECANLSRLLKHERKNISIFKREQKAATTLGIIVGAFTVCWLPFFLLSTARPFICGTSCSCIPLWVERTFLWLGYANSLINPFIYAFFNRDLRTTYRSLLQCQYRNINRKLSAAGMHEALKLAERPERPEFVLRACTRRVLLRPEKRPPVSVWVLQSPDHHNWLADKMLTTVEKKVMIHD
Sequence of dopaminergic D3 receptor (P35462 whole entry): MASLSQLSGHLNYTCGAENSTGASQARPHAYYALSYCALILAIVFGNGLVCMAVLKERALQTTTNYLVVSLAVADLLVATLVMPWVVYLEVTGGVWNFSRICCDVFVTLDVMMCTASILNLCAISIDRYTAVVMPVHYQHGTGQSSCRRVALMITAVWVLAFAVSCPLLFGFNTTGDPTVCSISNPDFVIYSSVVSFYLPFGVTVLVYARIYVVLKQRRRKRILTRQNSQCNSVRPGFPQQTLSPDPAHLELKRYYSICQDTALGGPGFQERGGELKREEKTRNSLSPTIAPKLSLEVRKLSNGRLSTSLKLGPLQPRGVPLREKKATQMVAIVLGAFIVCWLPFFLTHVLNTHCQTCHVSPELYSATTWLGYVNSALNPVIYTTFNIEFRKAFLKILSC
Sequence of histaminergic H1 receptor (P35367 whole entry): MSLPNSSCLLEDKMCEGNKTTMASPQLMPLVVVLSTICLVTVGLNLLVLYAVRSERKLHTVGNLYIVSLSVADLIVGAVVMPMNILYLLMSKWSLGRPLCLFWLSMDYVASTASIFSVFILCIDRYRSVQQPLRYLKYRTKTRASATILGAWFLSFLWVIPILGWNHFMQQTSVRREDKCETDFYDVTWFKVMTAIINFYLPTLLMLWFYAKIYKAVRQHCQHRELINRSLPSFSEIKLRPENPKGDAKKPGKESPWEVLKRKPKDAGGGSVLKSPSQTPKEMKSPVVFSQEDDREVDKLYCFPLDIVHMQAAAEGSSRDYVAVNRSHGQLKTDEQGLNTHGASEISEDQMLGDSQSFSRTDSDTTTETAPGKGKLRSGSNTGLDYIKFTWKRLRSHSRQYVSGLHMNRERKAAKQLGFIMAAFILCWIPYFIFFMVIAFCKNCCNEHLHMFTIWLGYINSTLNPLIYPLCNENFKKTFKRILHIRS
T6 sequence (P20309 whole entry): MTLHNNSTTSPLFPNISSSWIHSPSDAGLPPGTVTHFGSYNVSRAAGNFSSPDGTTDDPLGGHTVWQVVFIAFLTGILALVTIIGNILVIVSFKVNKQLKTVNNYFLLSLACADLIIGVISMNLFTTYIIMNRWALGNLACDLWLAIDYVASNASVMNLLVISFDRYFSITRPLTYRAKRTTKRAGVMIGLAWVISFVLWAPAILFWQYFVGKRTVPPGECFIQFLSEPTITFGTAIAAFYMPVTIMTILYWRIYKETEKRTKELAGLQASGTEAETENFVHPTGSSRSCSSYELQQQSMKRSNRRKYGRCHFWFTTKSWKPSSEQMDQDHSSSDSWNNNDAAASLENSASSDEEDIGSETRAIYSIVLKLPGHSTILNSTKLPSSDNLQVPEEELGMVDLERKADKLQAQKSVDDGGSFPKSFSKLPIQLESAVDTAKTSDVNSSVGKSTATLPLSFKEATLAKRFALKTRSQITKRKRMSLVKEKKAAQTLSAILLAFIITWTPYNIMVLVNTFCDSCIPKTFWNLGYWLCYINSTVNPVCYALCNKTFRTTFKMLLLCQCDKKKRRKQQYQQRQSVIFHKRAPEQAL
T3 sequence (P50406 whole entry): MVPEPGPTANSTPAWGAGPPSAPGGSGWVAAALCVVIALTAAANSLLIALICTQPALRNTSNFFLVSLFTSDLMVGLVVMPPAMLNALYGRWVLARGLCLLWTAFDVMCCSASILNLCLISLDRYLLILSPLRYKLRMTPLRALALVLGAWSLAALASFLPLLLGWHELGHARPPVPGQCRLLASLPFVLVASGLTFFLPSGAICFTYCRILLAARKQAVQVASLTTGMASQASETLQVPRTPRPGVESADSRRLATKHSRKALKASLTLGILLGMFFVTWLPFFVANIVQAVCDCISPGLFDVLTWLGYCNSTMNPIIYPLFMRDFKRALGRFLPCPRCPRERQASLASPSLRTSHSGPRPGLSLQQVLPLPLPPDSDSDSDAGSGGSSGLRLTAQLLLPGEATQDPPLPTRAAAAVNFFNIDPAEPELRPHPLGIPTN

| SMILES | inhibition at 1 µM (adrenergic α2C receptor) [%] | α1 [%] (adrenergic α1 receptor) | inhibition at 1 µM (dopaminergic D2 receptor) [%] | inhibition at 1 µM [1] [%] | inhibition at 1 µM [2] [%] | activation at 1 µM [3] [%] | inhibition at 1 µM [3] [%] | inhibition at 1 µM [4] [%] | activation at 1 µM [5] [%] | inhibition at 1 µM [5] [%] | inhibition at 1 µM (dopaminergic D3 receptor) [%] | inhibition at 1 µM [6] [%] | inhibition at 1 µM [7] [%] | σ [%] (sigma σ receptor) | inhibition at 1 µM [8] [%] | inhibition at 1 µM (muscarinic M3 receptor) [%] | inhibition at 1 µM [9] [%] |
| --- | --- | --- | --- | --- | --- | --- | --- | --- | --- | --- | --- | --- | --- | --- | --- | --- | --- |
| O=c1[nH]c2ccc(S(=O)(=O)NCCCCN3CCN(c4nsc5ccccc45)CC3)cc2o1 [Compound 4, N-(4-(4-(1,2-Benzothiazol-3-yl)piperazin-1-yl)butyl)-2-oxo-3H-1,3-benzoxazole-6-sulphonamide] | 96 | 96 | 96 | 26 | 99 | -1 | 37 | 87 | -1 | 81 | 98 | 97 | 100 | 1 | 99 | 3 | 91 |
| O=S(=O)(NCCN1CCN(c2nsc3ccccc23)CC1)c1cccc2ccccc12 [Compound 9, N-(2-(4-(1,2-Benzothiazol-3-yl)piperazin-1-yl)ethyl)naphthalene-1-sulphonamide] | 98 | 74 | 91 | 29 | 99 | 0 | -4 | 22 | 0 | 48 | 90 | 98 | 77 | 23 | 98 | -2 | 24 |
| O=S(=O)(NCCN1CCN(c2nsc3ccccc23)CC1)c1ccc2ccccc2c1 [Compound 10, N-(2-(4-(1,2-Benzothiazol-3-yl)piperazin-1-yl)ethyl)naphthalene-2-sulphonamide] | 98 | 79 | 94 | 50 | 99 | 1 | -16 | 37 | 0 | 85 | 97 | 99 | 81 | 31 | 97 | -2 | 54 |
| Cc1cccc(S(=O)(=O)NCCN2CCN(c3nsc4ccccc34)CC2)c1 [Compound 11, N-(2-(4-(1,2-Benzothiazol-3-yl)piperazin-1-yl)ethyl)-3-methylbenzenesulphonamide] | 94 | 85 | 89 | 1 | 99 | -1 | -10 | 54 | 0 | 85 | 91 | 99 | 74 | 21 | 99 | -6 | 40 |
| O=S(=O)(NCCCN1CCC(c2noc3cc(F)ccc23)CC1)c1cc2cccnc2[nH]1 [Compound 357, N-[3-[4-(6-Fluoro-1,2-benzoxazol-3-yl)piperidin-1-yl]propyl]-1H-pyrrolo[2,3-b]pyridine-2-sulphonamide] | 94 | 99 | 99 | 41 | 101 |  |  | 94 |  |  | 94 | 99 | 84 | 64 | 63 | 25 | 83 |
| O=c1[nH]c2cccc(N3CCN(CCCCNS(=O)(=O)c4cccc5ccccc45)CC3)c2[nH]1 [Compound 418, N-[4-[4-(2-oxo-1,3-dihydrobenzimidazol-4-yl)piperazin-1-yl]butyl]naphthalene-1-sulphonamide] | 94 | 98 | 97 | 5 | 36 |  |  | 5 |  |  | 99 | 89 | 55 | 6 | 98 | 4 | 19 |
| O=c1[nH]c2cccc(N3CCN(CCCCNS(=O)(=O)c4ccc5ccccc5c4)CC3)c2[nH]1 [Compound 419, N-[4-[4-(2-oxo-1,3-dihydrobenzimidazol-4-yl)piperazin-1-yl]butyl]naphthalene-2-sulphonamide] | 93 | 86 | 93 | -21 | 52 |  |  | 12 |  |  | 97 | 86 | 12 | −14 | 98 | -8 | 7 |
| O=S(=O)(NCCN1CC=C(c2c[nH]c3ccc(F)cc23)CC1)c1cccc(F)c1 [Compound 439, 3-Fluoro-N-[2-[4-(5-fluoro-1H-indol-3-yl)-3,6-dihydro-2H-pyridin-1-yl]ethyl]benzenesulphonamide] | 68 | 27 | 97 | 93 | 83 |  |  | 92 |  |  | 95 | 78 | 18 | 80 | 99 | 16 | 41 |
